Test results taken from paper PMC4393083, “Antiviral Activity and Possible Mechanism of Action of Constituents Identified in Paeonia lactiflora Root toward Human Rhinoviruses” (PLoS ONE, 2015).
Like-named read-outs stand apart in the source and are kept apart here.

Experiments:
[1] = tested on: HRV; details: read-out: IC50 (anti-HRV); cited from earlier work
[2] = tested on: HRV-4; test: Cytopathic effect inhibition assay (MTT), HRV-4 in MRC5 cells; assay type: cell-based, human rhinovirus; details: HRV-4 in MRC5 cells
Experimental: (§1) Monolayers of HeLa and MRC5 cells were seeded onto a 96-well culture plate as stated previously. Subsequently, 90 μL media containing several different concentrations (1–1000 μg/mL) of each test material in DMSO was put into the wells, and then 10 μL of 10×TCID50 of the virus stock was added to produce an appropriate CPE within 2 days after infection. Ribavirin served as a reference control and was similarly prepared. Negative controls consisted of the DMSO solution. Viral inhibition rate (VIR) (%) was calculated according to the formula [21], VIR = (A tV—A cV)/(A cd—A cV) × 100, where A tV is the optical density measured with a given concentration of the test compound in HRV infected cells; A cV is the optical density measured for the control untreated HRV infected cells; A cd is the optical density measured for the control untreated HRV uninfected cells.
(§2) The CC50 and IC50 values were determined using GraphPad Prism 5 software program (GraphPad Software, La Jolla, CA). […] The selectivity index (SI) was determined as the ratio of CC50 to IC50 [23]. All data represent the mean ± SD of duplicate or triplicate samples of three independent experiments. Statistical analyses were carried out using SAS 9.13 program (SAS Institute, Cary, NC). Data from two groups were analyzed by a Student’s t-test, and multiple groups were analyzed by a one-way analysis of variance and Bonferroni multiple comparison post-test.

[3] = tested on: two HRVs (HRV-2 and HRV-4); test: Cytopathic effect inhibition assay, summary over both serotypes; assay type: cell-based, human rhinovirus; details: Rhinovirus A; range over HRV-2 and HRV-4, HeLa and MRC5 cells; read-out: IC50 toward two HRVs (range)
Experimental: as §1, §2

[4] = tested on: HRV-4; test: Cytopathic effect inhibition assay (MTT), HRV-4 in HeLa cells; assay type: cell-based, human rhinovirus; details: Human rhinovirus sp., HRV4, HeLa, read-out: IC50 (95% CL) HRV-4
Experimental: Extraction procedures of air-dried root of P. lactiflora were performed as described previously by Ngan et al.. For isolation of active principles, viral CPE inhibition assay toward HRV-4 in HeLa cell was used. […]. Column fractions were monitored by TLC on silica gel plates developed with chloroform and methanol (7:3 by volume) mobile phase. Fractions with similar R f values on the TLC plates were pooled. Active fractions 4 to 5 (EI, 2.44 g) and 7 (EII, 0.569 g) were obtained. The active fraction EI was rechromatographed on a silica gel column by elution with chloroform and methanol (70:30 by volume) to give nine fractions (each about 450 mL). A preparative HPLC was used for separation of constituents from the active fractions 3 to 5 (0.176 g). The column was a 4.6 mm i.d. × 150 mm Eclipse XDB-C18 (Agilent, Santa Clara, CA) using a mobile phase of methanol and water (3:7 by volume) at a flow rate of 0.5 mL/min. Chromatographic separations were monitored using a UV detector at 260 nm. […]. The three antiviral principles were characterized as paeonol (PA) (1), gallic acid (GA) (2), and 1,2,3,4,6-penta-O-galloyl-β-D-glucopyranose (PGG) (3) (Fig 1) by spectroscopic analyses, including MS and NMR. PA (1): compound 1 was isolated as an antibacterial principle from P. lactiflora root in our previous work, and the spectral data of compound 1 was largely identical to the published data. GA (2) was identified on the basis of the following evidence: white powder. UV (MeOH): λmax nm = 260. FT-IR: v max cm^–1 = 3491–3063 (OH stretch), 1608 (aromatic C = C). […] The interpretations of proton and carbon signals of compound 2 were largely consistent with those of Sakar et al.. PGG (3): compound 3 was isolated as an antibacterial principle from P. lactiflora root in our previous work, and the spectral data of compound 3 was largely identical to the published data.
as §1, §2

[5] = Cytotoxicity MTT assay in MRC5 cells; assay type: cell-based, human; details: human, tetrazolium assay, read-out: CC50 (95% CL)
Experimental: (§3) The cytotoxicity of the test materials to two human cell lines was evaluated using an MTT assay described previously by Morgan. In brief, a 10× stock solution of MTT was prepared by adding 5 mg/mL MTT in phosphate-buffered saline (PBS) (pH 7.4). The stock solution was sterile-filtered and stored at −20°C. HeLa and MRC5 cells were seeded onto 96-well culture plates at a density of 3 × 10^4 cells per well for 1 day. The culture medium was removed and the plates with monolayer cells were replaced with media containing several different concentrations (1–1000 μg/mL) of the test materials in dimethylsulfoxide (DMSO). After incubation at 37°C and 5% CO2 for 2 days, the culture plates were then washed once with 200 μL PBS. A volume of 100 μL medium containing 0.05% MTT were added to each well and then incubated for 4 h at the same condition. After then, MTT solution was removed and 150 μL DMSO was added to each well. Finally, the plate was shaken for 15 min to dissolve the purple formazan crystals that had formed. Absorbance was read at 560 nm by using a VersaMax microplate reader (Molecular Devices, Sunnyvale, CA) with a reference absorbance at 670 nm.
as §2, with “Statistical analyses were carried out using SAS 9.13 program (SAS Institute, Cary, NC).” left out

[6] = tested on: MRC5 cells; test: Cytotoxicity MTT assay in MRC5 cells; assay type: cell-based, human
Experimental: as §3
as §2, with “Statistical analyses were carried out using SAS 9.13 program (SAS Institute, Cary, NC).” left out

[7] = Cytotoxicity MTT assay in HeLa cells; assay type: cell-based; details: human, tetrazolium assay, read-out: CC50 (95% CL)
Experimental: as §3
as §2, with “Statistical analyses were carried out using SAS 9.13 program (SAS Institute, Cary, NC).” left out

[8] = tested on: HRV-2; test: Cytopathic effect inhibition assay (MTT), HRV-2 in HeLa cells; assay type: cell-based, human rhinovirus; details: read-out: IC50 (95% CL) HRV-2
Experimental: as §1, §2

[9] = tested on: HRV-2; test: Cytopathic effect inhibition assay (MTT), HRV-2 in MRC5 cells; assay type: cell-based, human rhinovirus; details: HRV-2 in MRC5 cells
Experimental: as §1, §2

Compound	IC50 [1]	also measured
C[C@@H]1CC[C@]2(C(=O)O)CC[C@]3(C)C(=CC[C@@H]4[C@@]5(C)C[C@@H](O)[C@H](OC(=O)/C=C/c6ccc(O)c(O)c6)C(C)(C)[C@@H]5CC[C@]43C)[C@@H]2[C@]1(C)O (relative stereo) [3-O-trans-caffeoyltormentic acid]	30.7 µM	
COc1cc(O)c2c(=O)c(OC)c(-c3ccc(O)c(OC)c3)oc2c1 [4ʹ,5-dihydroxy-3ʹ,3,7-trimethoxyflavone]	0.29 µM	
COc1cc2ccc(=O)oc2c(OC)c1OC [6,7,8-trimethoxycoumarin]	12 µM	
O=C(O)c1cc(O)c(O)c(O)c1 [GA, gallic acid]	~295 µM	IC50 (95% CL) HRV-4 [2]: ineffective; IC50 [3]: 427 to 448 µM; IC50 [4]: 448 µM; CC50 at 2 days [5]: 218 µM; concentration toxic to cells [6]: ≥ 290 µM; CC50 at 2 days [7]: 1500 µM; IC50 ([8]; Rhinovirus A, HRV2, HeLa): 427 µM; IC50 [8]: 427 µM; IC50 (95% CL) HRV-2 [9]: ineffective
COc1cc2c(c(O)c1OC)c(=O)c1ccccc1n2C [arborinine]	3.19 µM	
COc1cc2cc(Oc3ccc4ccc(=O)oc4c3)c(=O)oc2cc1OC [daphnoretin methyl ether]	97.1 µM	
C=C1CC[C@@H](O)C(C)(C)C1CC/C(C)=C/COc1ccc2ccc(=O)oc2c1 (stereo partly drawn) [farnesiferol B]	~2.61 µM	
C/C(=C\COc1ccc2ccc(=O)oc2c1)CC[C@@H]1C(C)(C)[C@H]2CC[C@]1(C)O2 [farnesiferol C]	~2.61 µM	
COc1cc2c(cc1OC)-c1c(OC)c(OC)cc3c1[C@H](C2)N(C)CC3 [glaucine]	22 µM	
O=c1c(-c2ccc(O)c(O)c2)coc2cc(O[C@@H]3O[C@H](CO)[C@@H](O)[C@H](O)[C@H]3O)cc(O)c12 [orobol 7-O-D-glucoside]	1.29 to 19.6 µM	
C=C1CCC2CC(C(=C)C)C2(C)CCC(C(=C)C(=O)O)CC1CC=C(C)C (stereo not drawn) [raoulic acid]	0.51 µM	
(S)-ribalinine	83 µM	
